ChEMBL document CHEMBL1150736, “Potential inhibitors of platelet aggregation from plant sources, III” (1987)
Calls of active or inactive are those of the source. The rule behind the calls is not given here.

Legend:
Format in all cases: functional
Platelet [1] = experiment: Antiplatelet activity against rat platelet rich plasma assessed as inhibition of collagen-induced platelet aggregation at 0.1 mg/ml pretreated 2 mins before collagen challenge
Platelet [2] = experiment: Antiplatelet activity against rat platelet rich plasma assessed as inhibition of collagen-induced platelet aggregation at 0.25 mg/ml pretreated 2 mins before collagen challenge
Platelet [3] = experiment: Antiplatelet activity against rat platelet rich plasma assessed as inhibition of arachidonic acid-induced platelet aggregation at 0.25 mg/ml pretreated 2 mins before arachidonic acid challenge
Platelet [4] = experiment: Antiplatelet activity against rat platelet rich plasma assessed as inhibition of arachidonic acid-induced platelet aggregation at 0.5 mg/ml pretreated 2 mins before arachidonic acid challenge
Platelet [5] = experiment: Antiplatelet activity against rat platelet rich plasma assessed as inhibition of ADP-induced platelet aggregation at 1 mg/ml pretreated 2 mins before ADP challenge
[6] = Antiplatelet activity against rat platelet rich plasma assessed as inhibition of arachidonic acid-induced platelet aggregation pretreated 2 mins before arachidonic acid challenge
[7] = Antiplatelet activity against rat platelet rich plasma assessed as inhibition of collagen-induced platelet aggregation pretreated 2 mins before collagen challenge
[8] = Antiplatelet activity against rat platelet rich plasma assessed as inhibition of ADP-induced platelet aggregation pretreated 2 mins before ADP challenge
Platelet [9] = experiment: Antiplatelet activity against rat platelet rich plasma assessed as inhibition of collagen-induced platelet aggregation at 0.05 mg/ml pretreated 2 mins before collagen challenge
Platelet [10] = experiment: Antiplatelet activity against rat platelet rich plasma assessed as inhibition of arachidonic acid-induced platelet aggregation at 0.1 mg/ml pretreated 2 mins before arachidonic acid challenge
Platelet [11] = experiment: Antiplatelet activity against rat platelet rich plasma assessed as inhibition of ADP-induced platelet aggregation at 0.5 mg/ml pretreated 2 mins before ADP challenge

Compound	Activity (Platelet [2])	Activity (Platelet [3])	Activity (Platelet [4])	Activity (Platelet [5])	further results
CCOc1ccc(C(=O)O)cc1OCC	inactive	inactive	Active	Active	Activity (Platelet [1]): inactive
COC(=O)c1cccc(O)c1O	–	Active	Active	Active	–
COC(=O)c1ccc(O)c(O)c1	–	Active	Active	Active	–
COc1cccc(C(=O)O)c1OC	Active	inactive	inactive	Active	–
COc1cccc(C(=O)O)c1O	–	–	Active	Active	–
O=C(O)c1ccc(O)c(O)c1 [PROTOCATECHUIC ACID]	Active	–	Active	Active	Activity [6]: 3.2 mM; Activity [7]: 1.6 mM; Activity [8]: 6.5 mM
O=C(O)c1cc(O)cc(O)c1	Active	–	Active	Active	–
CC(=O)Oc1ccccc1C(=O)O [ASPIRIN]	Active	Active	Active	Active	Activity (Platelet [9]): inactive; Activity (Platelet [10]): Active; Activity [6]: 2.8 ×10⁻⁴ M; Activity [7]: 1.4 mM; Activity [8]: 5.6 mM
COc1ccc(O)c(C(=O)O)c1	Active	inactive	–	Active	–
COc1cc(C(=O)O)ccc1O	Active	inactive	Active	Active	–
COc1ccc(C(=O)O)c(OC)c1	Active	–	Active	Active	–
CCOC(=O)c1cc(O)cc(O)c1	–	–	Active	Active	–
COc1ccc(C(=O)O)cc1OC	–	inactive	–	–	Activity (Platelet [11]): inactive
COc1ccc(C(=O)O)c(O)c1	Active	–	Active	–	–
COC(=O)c1ccc(O)c(OC)c1	Active	Active	Active	Active	Activity (Platelet [1]): Active
O=C(O)c1ccc(O)cc1O	Active	Active	Active	Active	Activity (Platelet [10]): Active; Activity (Platelet [1]): Active

Compound	Activity (Platelet [2])	Activity (Platelet [3])	Activity (Platelet [4])	Activity (Platelet [5])	further results
COc1cccc(OC)c1C(=O)O	Active	inactive	–	–	–
COc1ccc(C(=O)O)cc1O	–	inactive	Active	Active	–
O=C(O)c1cccc(O)c1O	Active	Active	Active	Active	–
CCOC(=O)c1ccc(O)c(O)c1	Active	Active	Active	Active	Activity (Platelet [10]): Active; Activity [6]: 5.5 ×10⁻⁴ M; Activity [7]: 1.4 mM; Activity [8]: 2.7 mM; Activity (Platelet [11]): Active
COC(=O)c1ccc(OC)c(OC)c1	Active	Active	Active	–	Activity (Platelet [1]): Active
COC(=O)c1ccc(OC)cc1O	Active	inactive	–	–	Activity (Platelet [11]): inactive
O=C(O)c1cc(O)ccc1O	Active	–	Active	Active	–
COc1cc(OC)cc(C(=O)O)c1	inactive	–	–	–	Activity (Platelet [1]): inactive; Activity (Platelet [11]): inactive
COc1cc(CC(=O)O)ccc1O	–	Active	–	Active	–
CCOC(=O)c1cccc(O)c1O	–	Active	Active	Active	–
COC(=O)c1cc(O)cc(O)c1	Active	Active	Active	Active	Activity (Platelet [10]): Active
COC(=O)c1cc(OC)cc(OC)c1	Active	–	Active	–	–
COC(=O)c1ccc(O)cc1O	–	Active	Active	Active	–
O=C(O)c1c(O)cccc1O	Active	–	Active	–	–
CCOC(=O)c1ccc(O)cc1O	–	Active	Active	Active	–
